Experimental data taken from patent US9249180B2, “C-3 alkyl and alkenyl modified betulinic acid derivatives” (priority 2013, dated 2016).

Tested on: recombinant NL4-3 virus (Renilla luciferase in nef, Gag P373S; NLRluc) in MT-2 cells
Experiment: HIV Cell Culture Assay (luciferase reporter, antiviral activity)
Assay type: cell-based
Settings: Renilla, NL43, MT-2 cells infected for 4-5 days with NLRluc recombinants, serial dilutions of the inhibitor
Procedure: HIV Cell Culture Assay—MT-2 cells and 293T cells were obtained from the NIH AIDS Research and Reference Reagent Program. MT-2 cells were propagated in RPMI 1640 media supplemented with 10% heat inactivated fetal bovine serum, […]. The 293T cells were propagated in DMEM media supplemented with 10% heat inactivated fetal bovine serum (FBS), 100 units/ml penicillin G and 100 μg/ml streptomycin. The proviral DNA clone of NL4-3 was obtained from the NIH AIDS Research and Reference Reagent Program. A recombinant NL4-3 virus, in which a section of the nef gene from NL4-3 was replaced with the Renilla luciferase gene, was used as a reference virus. In addition, residue Gag P373 was converted to P373S. Briefly, the recombinant virus was prepared by transfection of the altered proviral clone of NL4-3. Transfections were performed in 293T cells using LipofectAMINE PLUS from Invitrogen (Carlsbad, Calif.), according to manufacturer's instruction. The virus was titered in MT-2 cells using luciferase enzyme activity as a marker. Luciferase was quantitated using the Dual Luciferase kit from Promega (Madison, Wis.), with modifications to the manufacturer's protocol. The diluted Passive Lysis solution was pre-mixed with the re-suspended Luciferase Assay Reagent and the re-suspended Stop & Glo Substrate (2:1:1 ratio). Fifty (50) μL of the mixture was added to each aspirated well on assay plates and luciferase activity was measured immediately on a Wallac TriLux (Perkin-Elmer). Antiviral activities of inhibitors toward the recombinant virus were quantified by measuring luciferase activity in cells infected for 4-5 days with NLRluc recombinants in the presence serial dilutions of the inhibitor.

Structure (SMILES)	EC50 [nM]
C=C(C)[C@@H]1CC[C@]2(NCCN3CCS(=O)(=O)CC3)CC[C@]3(C)[C@H](CC[C@@H]4[C@@]5(C)CC=C(CCC(C)(C)CC(=O)NC#N)C(C)(C)[C@@H]5CC[C@]43C)[C@@H]12 [Example 14, N-cyano-5-((1R,3aS,5aR,5bR,7aR,11aS,11bR,13aR,13bR)-3a-((2-(1,1-dioxidothiomorpholino)ethyl)amino)-5a,5b,8,8,11a-pentamethyl-1-(prop-1-en-2-yl)-2,3,3a,4,5,5a,5b,6,7,7a,8,11,11a,11b,12,13,13a,13b-octadecahydro-1H-cyclopenta[a]chrysen-9-yl)-3,3-dimethylpentanamide]	4.7
C=C(C)[C@@H]1CC[C@]2(NCCN3CCS(=O)(=O)CC3)CC[C@]3(C)[C@H](CC[C@@H]4[C@@]5(C)CC=C(CCC(C)(C)CC(=O)NS(C)(=O)=O)C(C)(C)[C@@H]5CC[C@]43C)[C@@H]12 [Example 15, 5-((1R,3aS,5aR,5bR,7aR,11aS,11bR,13aR,13bR)-3a-((2-(1,1-dioxidothiomorpholino)ethyl)amino)-5a,5b,8,8,11a-pentamethyl-1-(prop-1-en-2-yl)-2,3,3a,4,5,5a,5b,6,7,7a,8,11,11a,11b,12,13,13a,13b-octadecahydro-1H-cyclopenta[a]chrysen-9-yl)-3,3-dimethyl-N-(methylsulfonyl)pentanamide]	1.6
CC(C)[C@@H]1CC[C@]2(NCCN3CCS(=O)(=O)CC3)CC[C@]3(C)[C@H](CC[C@@H]4[C@@]5(C)CCC(CCCCC(=O)O)C(C)(C)[C@@H]5CC[C@]43C)[C@@H]12 (stereo partly drawn) [Example 16, 5-((1S,3aS,5aR,5bR,7aS,11aS,11bR,13aR,13bR)-3a-((2-(1,1-dioxidothiomorpholino)ethyl)amino)-1-isopropyl-5a,5b,8,8,11a-pentamethylicosahydro-1H-cyclopenta[a]chrysen-9-yl)pentanoic acid]	1
CC(C)[C@@H]1CC[C@]2(NCCN3CCS(=O)(=O)CC3)CC[C@]3(C)[C@H](CC[C@@H]4[C@@]5(C)CCC(CCCC(C)(C)C(=O)O)C(C)(C)[C@@H]5CC[C@]43C)[C@@H]12 (stereo partly drawn) [Example 17, 5-((1S,3aS,5aR,5bR,7aS,11aS,11bR,13aR,13bR)-3a-((2-(1,1-dioxidothiomorpholino)ethyl)amino)-1-isopropyl-5a,5b,8,8,11a-pentamethylicosahydro-1H-cyclopenta[a]chrysen-9-yl)-2,2-dimethylpentanoic acid]	7.3
C=C(C)[C@@H]1CC[C@]2(NCCN3CCC(S(C)(=O)=O)CC3)CC[C@]3(C)[C@H](CC[C@@H]4[C@@]5(C)CC=C(CCC(C)(C)CC(=O)O)C(C)(C)[C@@H]5CC[C@]43C)[C@@H]12 [Example 18, 3,3-dimethyl-5-((1R,3aS,5aR,5bR,7aR,11aS,11bR,13aR,13bR)-5a,5b,8,8,11a-pentamethyl-3a-((2-(4-(methylsulfonyl)piperidin-1-yl)ethyl)amino)-1-(prop-1-en-2-yl)-2,3,3a,4,5,5a,5b,6,7,7a,8,11,11a,11b,12,13,13a,13b-octadecahydro-1H-cyclopenta[a]chrysen-9-yl)pentanoic acid]	1.1
C=C(C)[C@@H]1CC[C@]2(C(=O)O)CC[C@]3(C)[C@H](CC[C@@H]4[C@@]5(C)CC=C(CCC(=O)O)C(C)(C)[C@@H]5CC[C@]43C)[C@@H]12 [Example 19, (1R,3aS,5aR,5bR,7aR,11aS,13aR,13bR)-9-(2-carboxyethyl)-5a,5b,8,8,11a-pentamethyl-1-(prop-1-en-2-yl)-2,3,3a,4,5,5a,5b,6,7,7a,8,11,11a,11b,12,13,13a,13b-octadecahydro-1H-cyclopenta[a]chrysene-3a-carboxylic acid]	470
C=C(C)[C@@H]1CC[C@]2(NCCN3CCS(=O)(=O)CC3)CC[C@]3(C)[C@H](CC[C@@H]4[C@@]5(C)CC=C(C=C6CCC(C(=O)O)CC6)C(C)(C)[C@@H]5CC[C@]43C)[C@@H]12 (stereo partly drawn) [Example A1, 4-(((1R,3aS,5aR,5bR,7aR,11aS,11bR,13aR,13bR)-3a-((2-(1,1-dioxidothiomorpholino)ethyl)amino)-5a,5b,8,8,11a-pentamethyl-1-(prop-1-en-2-yl)-2,3,3a,4,5,5a,5b,6,7,7a,8,11,11a,11b,12,13,13a,13b-octadecahydro-1H-cyclopenta[a]chrysen-9-yl)methylene)cyclohexanecarboxylic acid]	3.55
C=C(C)[C@@H]1CC[C@]2(NCCN3CCS(=O)(=O)CC3)CC[C@]3(C)[C@H](CC[C@@H]4[C@@]5(C)CC=C(/C=C/c6ccc(C(=O)O)cc6)C(C)(C)[C@@H]5CC[C@]43C)[C@@H]12 [Example B1, 4-((E)-2-((1R,3aS,5aR,5bR,7aR,11aS,11bR,13aR,13bR)-3a-((2-(1,1-dioxidothiomorpholino)ethyl)amino)-5a,5b,8,8,11a-pentamethyl-1-(prop-1-en-2-yl)-2,3,3a,4,5,5a,5b,6,7,7a,8,11,11a,11b,12,13,13a,13b-octadecahydro-1H-cyclopenta[a]chrysen-9-yl)vinyl)benzoic acid]	10
C=C(C)[C@@H]1CC[C@]2(NCCN3CCS(=O)(=O)CC3)CC[C@]3(C)[C@H](CC[C@@H]4[C@@]5(C)CC=C(/C=C/C6CC6(NC(=O)OC(C)(C)C)C(=O)O)C(C)(C)[C@@H]5CC[C@]43C)[C@@H]12 (stereo partly drawn) [Example B2, 1-((tert-butoxycarbonyl)amino)-2-((E)-2-((1R,3aS,5aR,5bR,7aR,11aS,11bR,13aR,13bR)-3a-((2-(1,1-dioxidothiomorpholino)ethyl)amino)-5a,5b,8,8,11a-pentamethyl-1-(prop-1-en-2-yl)-2,3,3a,4,5,5a,5b,6,7,7a,8,11,11a,11b,12,13,13a,13b-octadecahydro-1H-cyclopenta[a]chrysen-9-yl)vinyl)cyclopropanecarboxylic acid]	40
C=C(C)[C@@H]1CC[C@]2(NCCN3CCC(S(C)(=O)=O)CC3)CC[C@]3(C)[C@H](CC[C@@H]4[C@@]5(C)CC=C(C=C6CC(C(=O)O)C6)C(C)(C)[C@@H]5CC[C@]43C)[C@@H]12 (stereo partly drawn) [Example B4, 3-(((1R,3aS,5aR,5bR,7aR,11aS,11bR,13aR,13bR)-5a,5b,8,8,11a-pentamethyl-3a-((2-(4-(methylsulfonyl)piperidin-1-yl)ethyl)amino)-1-(prop-1-en-2-yl)-2,3,3a,4,5,5a,5b,6,7,7a,8,11,11a,11b,12,13,13a,13b-octadecahydro-1H-cyclopenta[a]chrysen-9-yl)methylene)cyclobutanecarboxylic acid]	0.6
